Publication PMC9863651, “Anti-Glioma Activity Achieved by Dual Blood–Brain Barrier/Glioma Targeting Naive Chimeric Peptides-Based Co-Assembled Nanophototheranostics” (Pharmaceutics, 2023)

Experiments:
[1] = test system: C6 cells; assay: Localized chemo-PTT/PDT toxicity, brightfield imaging; format: cell-based, Rat; conditions: 100 μg/mL, 30 min
Description: The localized collaborative chemo-phototoxicity of PINPs, in contrast to PNPs, was studied and then visualized using C6 cells. In short, to assess the thermal ablation effect, C6 cells (50,000/well in 6-well dishes) were seeded and cultured in complete media and they were treated with different formulations (100 μg/mL, for 30 min). The used complete growth media containing the formulations was then swapped with new phenol-free media without FBS. For a combined chemo-phototoxicity analysis, the corresponding wells containing cells were exposed to a NIR-808 laser for ~10 min, incubated for an additional 30 min, and subsequently imaged under a brightfield microscope (Olympus BX53; Tokyo, Japan).

[2] = test system: C6 glioma cells; assay: Scratch wound healing assay (cell migration); format: cell-based, Rat; conditions: 100 μg/mL, 1 h, NIR-808 10 min, 24 h after scraping
Description: Scratch wound healing assays of the PNPs, PINPs, and ICG (100 μg/mL) were studied in C6 cells as described previously. This was followed by imaging of the cells which migrated towards the cell-free zone in the scrape at 0 and 24 h, using a brightfield inverted microscope (IX71; Olympus Corp., Tokyo, Japan). The cell migration was analyzed by measuring the dimension of the gap distance using the Adobe Photoshop CC software. The details of the process being used are provided in the Supplementary Materials. […]
nanoparticle’s aqueous solution was monitored and recorded every single min by a digital […]
1.4.5. […]
1.4.6. Scratch Assay of PINPs Determined in C6 Glioma Cells […]
1.4.7. Localized Chemo-phototoxicity of PINPs Determined in C6 Cells
Next, we quantified the synergistic chemo-phototoxicity of PINPs (10 μg/mL) in comparison to other individual moieties [PNPs (chemotherapy) and ICG (phototherapy)] in C6 cells. […]
Following day cells were treated with different formulations for 30 min. […] Cells were incubated for another 24 h and were evaluated by standard MTT assay as described […]
Figure S1. Size distribution profile of self-assembled peptide nanostructures determined in a mixture of HFIP-water at a ratio of 1:19 v/v. […]

CC1(C)C(/C=C/C=C/C=C/C=C2\N(CCCCS(=O)(=O)O)c3ccc4ccccc4c3C2(C)C)=[N+](CCCCS(=O)(=O)[O-])c2ccc3ccccc3c21 [ICG, indocyanine green]
cell death (brightfield images) after NIR-808 exposure ([1]; NIR-808 ~10 min): no cell death
cell death (brightfield images) in the dark / without NIR-808 ([1]; no laser): no cell death
wound closure [2]: ~ 100%
